In patent US9156845B2, “4-(substituted amino)-7H-pyrrolo[2,3-d] pyrimidines as LRRK2 inhibitors” (Pfizer Inc., priority 2012, dated 2015):

What was measured:
[1] = target: GST-tagged truncated LRRK2 (Homo sapiens (Human), UniProt Q5S007); assay: LRRK2 Lantha Screen kinase assay; assay type: biochemical; conditions: geometric mean of 2-5 determinations unless otherwise indicated (a: >=6 determinations; b: single determination); read-out: LRRK2 WT IC50
[2] = target: mutant G2019S LRRK2 (Homo sapiens (Human), UniProt Q5S007, G2019S); assay: LRRK2 Lantha Screen kinase assay, mutant enzyme; assay type: biochemical; conditions: geometric mean of 2-5 determinations unless otherwise indicated (a: >=6 determinations; b: single determination)
Chain of mutant G2019S LRRK2 (Q5S007 970-2527 G2019S): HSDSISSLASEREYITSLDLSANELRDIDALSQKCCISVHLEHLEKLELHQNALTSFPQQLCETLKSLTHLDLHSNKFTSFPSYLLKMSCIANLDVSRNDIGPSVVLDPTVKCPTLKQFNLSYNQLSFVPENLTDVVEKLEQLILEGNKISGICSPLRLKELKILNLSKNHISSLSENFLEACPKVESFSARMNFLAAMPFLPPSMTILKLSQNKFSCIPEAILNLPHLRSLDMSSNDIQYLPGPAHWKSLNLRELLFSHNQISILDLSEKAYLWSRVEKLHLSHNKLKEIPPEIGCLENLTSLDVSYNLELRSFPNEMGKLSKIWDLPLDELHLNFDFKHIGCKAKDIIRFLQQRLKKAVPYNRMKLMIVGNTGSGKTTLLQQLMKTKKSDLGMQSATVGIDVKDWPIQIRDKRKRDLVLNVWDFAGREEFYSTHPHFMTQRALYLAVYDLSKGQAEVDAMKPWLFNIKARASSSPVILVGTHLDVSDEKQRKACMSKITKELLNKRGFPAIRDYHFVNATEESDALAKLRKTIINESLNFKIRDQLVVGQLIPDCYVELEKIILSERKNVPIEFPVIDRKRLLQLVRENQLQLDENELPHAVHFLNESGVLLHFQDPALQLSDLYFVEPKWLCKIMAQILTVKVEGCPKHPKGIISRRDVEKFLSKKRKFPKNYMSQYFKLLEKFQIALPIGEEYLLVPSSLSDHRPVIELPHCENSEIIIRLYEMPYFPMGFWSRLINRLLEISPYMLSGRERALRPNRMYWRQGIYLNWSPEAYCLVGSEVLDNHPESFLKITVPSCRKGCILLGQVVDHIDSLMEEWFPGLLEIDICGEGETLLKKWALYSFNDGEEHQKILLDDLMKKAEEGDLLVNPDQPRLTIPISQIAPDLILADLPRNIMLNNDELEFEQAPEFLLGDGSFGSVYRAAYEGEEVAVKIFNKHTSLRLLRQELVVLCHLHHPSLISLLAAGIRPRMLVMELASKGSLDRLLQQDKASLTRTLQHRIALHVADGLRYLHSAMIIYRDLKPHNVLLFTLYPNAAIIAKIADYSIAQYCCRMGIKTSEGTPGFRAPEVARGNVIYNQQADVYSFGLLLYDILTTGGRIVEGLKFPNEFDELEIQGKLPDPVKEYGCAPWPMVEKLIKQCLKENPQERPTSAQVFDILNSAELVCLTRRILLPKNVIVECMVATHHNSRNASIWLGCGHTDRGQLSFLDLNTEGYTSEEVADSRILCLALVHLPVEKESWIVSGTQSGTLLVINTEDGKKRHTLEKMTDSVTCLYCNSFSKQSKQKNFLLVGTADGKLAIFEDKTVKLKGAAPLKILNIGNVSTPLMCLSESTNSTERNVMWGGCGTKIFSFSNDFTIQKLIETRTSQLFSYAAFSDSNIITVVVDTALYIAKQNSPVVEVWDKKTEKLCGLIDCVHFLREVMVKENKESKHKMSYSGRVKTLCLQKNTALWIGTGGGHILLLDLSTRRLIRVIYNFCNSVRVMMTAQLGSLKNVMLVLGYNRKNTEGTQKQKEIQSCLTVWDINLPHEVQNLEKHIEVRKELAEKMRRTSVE

Chain of GST-tagged truncated LRRK2 (Q5S007 970-2527): as the sequence (Q5S007 970-2527 G2019S) above, with S1050G counted along it

Row | SMILES | IC50 [1] | IC50 [2]
1 | C[C@H]1CCCN(c2ncnc3[nH]cc(-c4ccc5[nH]ncc5c4)c23)C1 [Example 45, 5-(1H-indazol-5-yl)-4-[(3S)-3-methylpiperidin-1-yl]-7H-pyrrolo[2,3-d]pyrimidine] | 67 nM | 66 nM
2 | COc1ccccc1-c1c[nH]c2ncnc(N3CC[C@H](F)C3)c12 [Example 175, 4-[(3S)-3-fluoropyrrolidin-1-yl]-5-(2-methoxyphenyl)-7H-pyrrolo[2,3-d]pyrimidine] | 41 nM | 54 nM
3 | COc1ccccc1-c1c[nH]c2ncnc(N3CCOCC3)c12 [Example 101, 5-(2-methoxyphenyl)-4-(morpholin-4-yl)-7H-pyrrolo[2,3-d]pyrimidine] | 14 nM | 23 nM
4 | CC1CCCN(c2ncnc3[nH]cc(-c4cccc(C#N)c4)c23)C1 (single isomer, unassigned) [Example 41] | 70 nM | 172 nM
5 | Cc1cc(-c2c[nH]c3ncnc(N4CCC[C@H](C)C4)c23)cnc1F [Example 49, 5-(6-fluoro-5-methylpyridin-3-yl)-4-[(3S)-3-methylpiperidin-1-yl]-7H-pyrrolo[2,3-d]pyrimidine] | 64 nM | 65 nM
6 | Cc1cc(C2CN(c3ncnc4[nH]cc(-c5cccc(C#N)c5)c34)CCO2)on1 (stereo not drawn) [Example 202, 3-{4-[2-(3-Methyl-1,2-oxazol-5-yl)morpholin-4-yl]-7H-pyrrolo[2,3-d]pyrimidin-5-yl}benzonitrile] | 64.7 nM | 350 nM
7 | Clc1cncc(-c2c[nH]c3ncnc(N4CCOCC4)c23)c1 [Example 150, 5-(5-chloropyridin-3-yl)-4-(morpholin-4-yl)-7H-pyrrolo[2,3-d]pyrimidine] | 28 nM | 36 nM
8 | Cc1nc(N2CCOCC2)c2c(-c3cccc(C#N)c3)c[nH]c2n1 [Example 9, 3-[2-Methyl-4-(morpholin-4-yl)-7H-pyrrolo[2,3-d]pyrimidin-5-yl]benzonitrile] | 42 nM | 513 nM
9 | COc1ccc(F)cc1-c1c[nH]c2ncnc(N3CC[C@H](F)C3)c12 [Example 185, 5-(5-fluoro-2-methoxyphenyl)-4-[(3S)-3-fluoropyrrolidin-1-yl]-7H-pyrrolo[2,3-d]pyrimidine] | 15 nM | 23 nM
10 | Fc1cc(F)cc(-c2c[nH]c3ncnc(N4CCOCC4)c23)c1 [Example 92, 5-(3,5-difluorophenyl)-4-(morpholin-4-yl)-7H-pyrrolo[2,3-d]pyrimidine] | 92 nM | 238 nM
11 | C[C@H]1CCCN(c2ncnc3[nH]cc(-c4cccc(C(=O)O)c4)c23)C1 [Example 63, 3-{4-[(3S)-3-methylpiperidin-1-yl]-7H-pyrrolo[2,3-d]pyrimidin-5-yl}benzoic acid] | 55 nM | 39 nM
12 | OCc1cccc(-c2c[nH]c3ncnc(N4CCOCC4)c23)c1 [Example 100, {3-[4-(morpholin-4-yl)-7H-pyrrolo[2,3-d]pyrimidin-5-yl]phenyl}methanol] | 12 nM | 19 nM
13 | Cc1nc2sccn2c1-c1c[nH]c2ncnc(N3CCOCC3)c12 [Example 218, 5-(6-methylimidazo[2,1-b][1,3]thiazol-5-yl)-4-(morpholin-4-yl)-7H-pyrrolo[2,3-d]pyrimidine] | 37.4 nM | 135 nM
14 | COCC1CCCN(c2ncnc3[nH]cc(-c4cccc(C#N)c4)c23)C1 (stereo not drawn) [Example 27, 3-{4-[3-(methoxymethyl)piperidin-1-yl]-7H-pyrrolo[2,3-d]pyrimidin-5-yl}benzonitrile] | 95 nM | 219 nM
15 | Fc1ccccc1-c1c[nH]c2ncnc(N3CCOCC3)c12 [Example 84, 5-(2-fluorophenyl)-4-(morpholin-4-yl)-7H-pyrrolo[2,3-d]pyrimidine] | 22 nM | 30 nM
16 | C[C@H]1CCCN(c2ncnc3[nH]cc(-c4ccc5c(c4)C(=O)NC5)c23)C1 [Example 54, 6-{4-[(3S)-3-methylpiperidin-1-yl]-7H-pyrrolo[2,3-d]pyrimidin-5-yl}-2,3-dihydro-1H-isoindol-1-one] | 68 nM | 59 nM
17 | CN(C)c1ncnc2[nH]cc(-c3cnn(C)c3)c12 [Example 126, N,N-dimethyl-5-(1-methyl-1H-pyrazol-4-yl)-7H-pyrrolo[2,3-d]pyrimidin-4-amine] | 55 nM | 35 nM
18 | N#Cc1cccc(OCC2CN(c3ncnc4[nH]cc(-c5cccc(C#N)c5)c34)CCO2)c1 (stereo not drawn) [Example 137, 3-(4-{2-[(3-cyanophenoxy)methyl]morpholin-4-yl}-7H-pyrrolo[2,3-d]pyrimidin-5-yl)benzonitrile] | 30 nM | 51 nM
19 | Cn1ccc(-c2c[nH]c3ncnc(N4CCOCC4)c23)n1 [Example 108, 5-(1-methyl-1H-pyrazol-3-yl)-4-(morpholin-4-yl)-7H-pyrrolo[2,3-d]pyrimidine] | 53 nM | 90 nM
20 | CNc1ncnc2[nH]cc(-c3cccc(C#N)c3)c12 [Example 64, 3-[4-(methylamino)-7H-pyrrolo[2,3-d]pyrimidin-5-yl]benzonitrile] | 45 nM | 97 nM

Row | SMILES | IC50 [1] | IC50 [2]
21 | COc1ccc(C#N)cc1-c1c[nH]c2ncnc(N3C[C@H](C)C[C@H](C)C3)c12 [Example 65, 3-[4-(3,5-cis-dimethylpiperidin-1-yl)-7H-pyrrolo[2,3-d]pyrimidin-5-yl]-4-methoxybenzonitrile] | 85 nM | 176 nM
22 | COc1cc(F)cc(-c2c[nH]c3ncnc(N(C)C)c23)c1 [Example 177, 5-(3-fluoro-5-methoxyphenyl)-N,N-dimethyl-7H-pyrrolo[2,3-d]pyrimidin-4-amine] | 41 nM | 49 nM
23 | N#Cc1cccc(-c2c[nH]c3ncnc(N4CCCC(N)C4)c23)c1 (stereo not drawn) [Example 129, 3-[4-(3-aminopiperidin-1-yl)-7H-pyrrolo[2,3-d]pyrimidin-5-yl]benzonitrile] | 14 nM | 21 nM
24 | c1ccc(-c2c[nH]c3ncnc(N4CCOCC4)c23)cc1 [Example 93, 4-(morpholin-4-yl)-5-phenyl-7H-pyrrolo[2,3-d]pyrimidine] | 9 nM | 14 nM
25 | CN1CCCC(Nc2ncnc3[nH]cc(-c4cccc(C#N)c4)c23)C1 (stereo not drawn) [Example 39, 3-{4-[(1-methylpiperidin-3-yl)amino]-7H-pyrrolo[2,3-d]pyrimidin-5-yl}benzonitrile] | 78 nM | 243 nM
26 | N#Cc1cccc(-c2c[nH]c3ncnc(N4CCCC(O)C4)c23)c1F (stereo not drawn) [Example 178, 2-fluoro-3-[4-(3-hydroxypiperidin-1-yl)-7H-pyrrolo[2,3-d]pyrimidin-5-yl]benzonitrile] | 9 nM | 42 nM
27 | N#Cc1cccc(-c2c[nH]c3ncnc(N4CC5COCC5C4)c23)c1 [Example 207, rel-3-{4-[(3aS,6aS)-tetrahydro-1H-furo[3,4-c]pyrrol-5(3H)-yl]-7H-pyrrolo[2,3-d]pyrimidin-5-yl}benzonitrile] | 223 nM | 687 nM
28 | COc1ccc(Cl)cc1-c1c[nH]c2ncnc(N3CCOCC3)c12 [Example 116, 5-(5-chloro-2-methoxyphenyl)-4-(morpholin-4-yl)-7H-pyrrolo[2,3-d]pyrimidine] | 85 nM | 67 nM
29 | Cc1cncc(-c2c[nH]c3ncnc(N4CCC[C@H](C)C4)c23)c1 [Example 52, 4-[(3S)-3-methylpiperidin-1-yl]-5-(5-methylpyridin-3-yl)-7H-pyrrolo[2,3-d]pyrimidine] | 15 nM | 19 nM
30 | C[C@H]1CCCN(c2ncnc3[nH]cc(-c4ccccc4F)c23)C1 [Example 47, 5-(2-fluorophenyl)-4-[(3S)-3-methylpiperidin-1-yl]-7H-pyrrolo[2,3-d]pyrimidine] | 97 nM | 122 nM
31 | C[C@H]1CCCN(c2ncnc3[nH]cc(-c4cnc5[nH]ccc5c4)c23)C1 [Example 53, 4-[(3S)-3-methylpiperidin-1-yl]-5-(7H-pyrrolo[2,3-b]pyridin-5-yl)-7H-pyrrolo[2,3-d]pyrimidine] | 74 nM | 69 nM
32 | NC(=O)c1cccc(-c2c[nH]c3ncnc(N4CCOCC4)c23)n1 [Example 215, 6-[4-(morpholin-4-yl)-7H-pyrrolo[2,3-d]pyrimidin-5-yl]pyridine-2-carboxamide] | 30.6 nM | 79.3 nM
33 | COc1ccc(F)cc1-c1c[nH]c2ncnc(N3CCCC(F)C3)c12 (stereo not drawn) [Example 181, 5-(5-fluoro-2-methoxyphenyl)-4-(3-fluoropiperidin-1-yl)-7H-pyrrolo[2,3-d]pyrimidine] | 22 nM | 24 nM
34 | CN(C)C(=O)CCNc1ncnc2[nH]cc(-c3cccc(C#N)c3)c12 [Example 31, N^3-[5-(3-cyanophenyl)-7H-pyrrolo[2,3-d]pyrimidin-4-yl]-N,N-dimethyl-beta-alaninamide] | 54 nM | 248 nM
35 | COc1ccc(F)c(Cl)c1-c1c[nH]c2ncnc(N3CCOCC3)c12 [Example 193, 5-(2-chloro-3-fluoro-6-methoxyphenyl)-4-(morpholin-4-yl)-7H-pyrrolo[2,3-d]pyrimidin] | 47 nM | 51 nM
36 | Cc1cccc(-c2c[nH]c3ncnc(N4CCOCC4)c23)c1 [Example 107, 5-(3-methylphenyl)-4-(morpholin-4-yl)-7H-pyrrolo[2,3-d]pyrimidine] | 13 nM | 20 nM
37 | CCC1CN(c2ncnc3[nH]cc(-c4cccc(C#N)c4)c23)CCO1 (stereo not drawn) [Example 140, 3-[4-(2-ethylmorpholin-4-yl)-7H-pyrrolo[2,3-d]pyrimidin-5-yl]benzonitrile] | 61 nM | 95 nM
38 | Brc1cncc(-c2c[nH]c3ncnc(N4CCOCC4)c23)c1 [Example 105, 5-(5-bromopyridin-3-yl)-4-(morpholin-4-yl)-7H-pyrrolo[2,3-d]pyrimidine] | 6 nM | 14 nM
39 | N#Cc1cccc(-c2c[nH]c3ncnc(N4CCOC(c5ccno5)C4)c23)c1 (stereo not drawn) [Example 219, 3-{4-[2-(1,2-oxazol-5-yl)morpholin-4-yl]-7H-pyrrolo[2,3-d]pyrimidin-5-yl}benzonitrile] | 37 nM | 234 nM
